Reference: patent US6518272B2, “Cycloalkyl-substituted aryl-piperazines, piperidines and tetrahydropyridines as serotonergic agents” (Wyeth, priority 1998, dated 2003)
pEC50, pIC50: −log10 of the molar value.

Legend:
[1] = tested on: impairment of spatial learning caused by intrahippocampal scopolamine; conditions: cited from earlier work
human 5-HT1A receptor [2] = target: T1, human 5-HT1A receptor (Homo sapiens, UniProt P08908); experiment: Displacement of [3H] 8-OHDPAT from the 5-HT1A receptor in transfected CHO cells; type: binding; conditions: displacement of [3H] 8-OHDPAT; CHO cells stably transfected with the human 5-HT1A receptor; read-out: 5-HT1A Affinity (IC50)
T1 construct: expressed in transfected cells; host or cells: CHO cells (stably transfected)
T1 sequence (P08908 1-422): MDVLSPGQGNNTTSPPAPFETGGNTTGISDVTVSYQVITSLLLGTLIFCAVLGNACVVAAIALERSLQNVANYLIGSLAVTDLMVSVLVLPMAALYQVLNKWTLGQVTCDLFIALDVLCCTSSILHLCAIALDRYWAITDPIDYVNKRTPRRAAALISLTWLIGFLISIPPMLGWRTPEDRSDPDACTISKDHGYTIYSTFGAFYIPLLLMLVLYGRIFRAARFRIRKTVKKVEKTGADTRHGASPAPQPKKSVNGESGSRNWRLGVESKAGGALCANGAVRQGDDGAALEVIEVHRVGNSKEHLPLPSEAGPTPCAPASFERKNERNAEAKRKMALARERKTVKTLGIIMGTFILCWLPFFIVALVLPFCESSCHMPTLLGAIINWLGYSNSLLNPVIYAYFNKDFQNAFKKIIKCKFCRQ
Description: Affinity for the serotonin 5-HT1A receptor was established by assaying the test compound's ability to displace [^3H] 8-OHDPAT from its binding site on the receptor complex in CHO cells stably transfected with the human 5-HT1A receptor following the procedure described by J. Dunlop, Y. Zhang, D. Smith and L. Schechter (Eur. J. Pharmacol., submitted; variation of a procedure described by J. Zgombick et al., Naunyn-Schmiedeberg's Arch. Pharmacol., 354, 226-236 (1996)).

human 5-HT1A receptor [3] = target: T1, human 5-HT1A receptor; experiment: Agonist activity: inhibition of forskolin-stimulated cAMP accumulation in transfected CHO cells; type: cell-based; conditions: CHO cells with human 5-HT1A receptor
Description: (§1) Methods, 40, 47-55 (1998); variation of a procedure described by J. Zgombick et al., Naunyn-Schmiedeberg's Arch. Pharmacol., 354, 226-236 (1996)].

human 5-HT1A receptor [4] = target: T1, human 5-HT1A receptor; experiment: Antagonist activity: antagonism of 8-OHDPAT inhibition of forskolin-stimulated cAMP accumulation in transfected CHO cells; type: cell-based; conditions: CHO cells with human 5-HT1A receptor
Description: as §1

[5] = tested on: motion sickness and xylazine- and cis-platinin-induced vomiting; conditions: cited from earlier work
depression = conditions: in vivo; cited from earlier work
LTP = conditions: cited from earlier work
[6] = tested on: cognitive deficits induced by fornix lesions; conditions: marmosets; cited from earlier work
antidepressant response = conditions: clinical trials; co-administration with the SSRI's paroxetine and fluoxetine; cited from earlier work
[7] = tested on: human prostate tumor cell lines PC3, DU-145 and LNCaP; conditions: PC3, DU-145 and LNCaP in vitro; cited from earlier work
PC3 cell line = conditions: athymic nude mice; cited from earlier work

COc1ccccc1N1CCN(CC(C(=O)NC(C)(C)C)c2ccccc2)CC1 (stereo not shown) [WAY-100135]
effect on impairment of spatial learning [1]: prevented the impairment of spatial learning

O=C(N[C@H](CC1CCCCC1)CN1CCN(c2nc3ccccc3s2)CC1)C1CCCCC1 [Example 13, Cyclohexanecarboxylic Acid {(1R)-1-Cyclohexylmethyl-2-[4-(benzothiazol-2-yl)-piperazin-1-yl]-ethyl}-amide]
pIC50 (human 5-HT1A receptor [2]): 8.53
pEC50 (human 5-HT1A receptor [3]): 8.32

COc1cccc(N2CCN(C[C@H](CC3CCCCC3)NC(=O)C3CCCCC3)CC2)n1 [Example 12, Cyclohexane Carboxylic Acid {(1S)-1-Cyclohexylmethyl-2-[4-(6methoxypyridin-2-yl)-piperazin-1-yl]-ethyl}-amide]
pIC50 (human 5-HT1A receptor [2]): 8.38
pEC50 (human 5-HT1A receptor [3]): 7.83

CN(C(=O)C1(C)CCCCC1)[C@H](CC1CCCCC1)CN1CCN(c2cccc3c2OCCO3)CC1 [Example 6, 1-Methyl-cyclohexanecarboxylic Acid {(1R)-1-Cyclohexylmethyl-2-[4-(2,3-dihydro-benzo[1,4]dioxin-5-yl)-piperazin-1-yl]-ethyl}-methyl-amide]
pIC50 (human 5-HT1A receptor [2]): 8.16
pIC50 (human 5-HT1A receptor [4]): 8.14

COc1ccccc1N1CCN(C[C@@H](CC2CCCCC2)NC(=O)C2CCCCC2)CC1 [Example 1, Cyclohexanecarboxylic Acid {(1R)-1-Cyclohexylmethyl-2-[4-(2-methoxyphenyl)-piperazin-1-yl]-ethyl}-amide]
pIC50 (human 5-HT1A receptor [2]): 9.24
pEC50 (human 5-HT1A receptor [3]): 9.30

O=C(NCCN1CCN(c2cccc3c2OC[C@H](CO)O3)CC1)c1ccc(F)cc1 [Flesinoxan]
antiemetic activity in animal models [5]: particularly active

COc1ccccc1C1CCN(C[C@@H](CC2CCCCC2)NC(=O)C2CCCCC2)CC1 [Example 15, Cyclohexanecarboxylic Acid {(1R)-1-Cyclohexylmethyl-2-[4-(2-methoxyphenyl)-piperidin-1-yl]-ethyl}-amide]
pIC50 (human 5-HT1A receptor [2]): 8.97
pEC50 (human 5-HT1A receptor [3]): 8.41

COc1ccccc1C1CCN(C[C@@H](CC2CCCCC2)NC(=O)C(C)(C)C)CC1 [Example 19, N-{(1R)-1-Cyclohexylmethyl-2-[4-(2-methoxyphenyl)-piperidin-1-yl]-ethyl}-2,2-dimethyl-propionamide]
pIC50 (human 5-HT1A receptor [2]): 8.66
pIC50 (human 5-HT1A receptor [4]): 7.40

COc1ccccc1C1CCN(C[C@@H](CC2CCCCC2)N(C)C(=O)C2(C)CCCCC2)CC1 [Example 18, 1-Methyl-cyclohexanecarboxylic Acid {(1R)-1-Cyclohexylmethyl-2-[4-(2-methoxypheniyl)-piperidin-1-yl]-ethyl}-methyl-amide]
pIC50 (human 5-HT1A receptor [2]): 8.27
pIC50 (human 5-HT1A receptor [4]): 7.01

O=C1CC2(CCCC2)CC(=O)N1CCCCN1CCN(c2ncccn2)CC1 [Buspirone, buspirone]
antidepressant activity (depression): weak antidepressant activity

COc1ccccc1N1CCN(C[C@@H](CC2CCCCC2)NC(=O)C2(C)CCCCC2)CC1 [Example 2, 1-Methyl-cyclohexanecarboxylic Acid of {(1R)-1-Cyclohexylmethyl-2-[4-(2-methoxyphenyl)-piperazin-1-yl]-ethyl}-amide]
pIC50 (human 5-HT1A receptor [2]): 8.91
pIC50 (human 5-HT1A receptor [4]): 7.84

CN(C(=O)C1CCCCC1)[C@H](CC1CCCCC1)CN1CCN(c2cccc3c2OCCO3)CC1 [Example 5]
pIC50 (human 5-HT1A receptor [2]): 8.63
pIC50 (human 5-HT1A receptor [4]): 8.34

COc1ccccc1N1CCN(CCCCN2C(=O)c3ccccc3C2=O)CC1 [NAN-190]
effect on LTP (LTP): augment LTP

COc1ccccc1N1CCN(C[C@@H](CC2CCCCC2)N(C)C(=O)C2CCCCC2)CC1 [Example 3, Cyclohexanecarboxylic Acid {(1R)-1-Cyclohexylmethyl-2-[4-(2-methoxyphenyl)-piperazin-1-yl]-ethyl}-methyl-amide]
pIC50 (human 5-HT1A receptor [2]): 8.84
pIC50 (human 5-HT1A receptor [4]): 8.40

CN(C(=O)C1CCCCC1)[C@H](CC1CCCCC1)CN1CCN(c2cccc3[nH]ccc23)CC1 [Example 7, Cyclohexanecarboxylic Acid {(1R)-1-Cyclohexylmethyl-2-[4-(1H-indol-4-yl)-piperazin-1-yl]-ethyl}-methyl-amide]
pIC50 (human 5-HT1A receptor [2]): 8.05
pIC50 (human 5-HT1A receptor [4]): 7.98

COc1ccccc1C1CCN(C[C@@H](CC2CCCCC2)N(C)C(=O)C2CCCCC2)CC1 [Example 17, Cyclohexanecarboxylic Acid {(1R)-1-Cyclohexylmethyl-2-[4-(2-methoxyphenyl)-piperidin-1-yl]-ethyl}-methyl-amide]
pIC50 (human 5-HT1A receptor [2]): 8.77
pIC50 (human 5-HT1A receptor [4]): 7.04

O=C(N[C@H](CC1CCCCC1)CN1CCN(c2ncccn2)CC1)C1CCC1 [Example 11, Cyclobutane Carboxylic Acid {(1R)-1-Cyclohexylmethyl-2-[4-(pyrimidin-2-yl)-piperazin-1-yl]-ethyl}-amide]
pIC50 (human 5-HT1A receptor [2]): 8.62
pEC50 (human 5-HT1A receptor [3]): 7.66

O=C(N[C@H](CC1CCCCC1)CN1CCN(c2ncccn2)CC1)C1CCCCC1 [Example 10, Cyclohexanecarboxylic Acid {(1R)-1-Cyclohexylmethyl-2-[4-(pyrimidin-2-yl)-piperazin-1-yl]-ethyl}-amide]
pIC50 (human 5-HT1A receptor [2]): 9.15
pEC50 (human 5-HT1A receptor [3]): 8.89

COc1ccccc1N1CCN(CCN(C(=O)C2CCCCC2)c2ccccn2)CC1 [WAY-100635]
effect on cognitive deficits induced by fornix lesions [6]: reversed the cognitive deficits

COc1ccccc1C1CCN(C[C@@H](CC2CCCCC2)NC(=O)C2(C)CCCCC2)CC1 [Example 16, 1-Methyl-cyclohexanecarboxylic acid {(1R)-1-cyclohexylmethyl-2-[4-(2-methoxyphenyl)-piperidin-1-yl]-ethyl}-amide]
pIC50 (human 5-HT1A receptor [2]): 8.22
pIC50 (human 5-HT1A receptor [4]): 7.34

CC(C)NCC(O)COc1cccc2[nH]ccc12 (stereo not shown) [pindolol]
median time needed to achieve a sustained antidepressant response (antidepressant response): significantly reduced the median time

COc1ccccc1N1CCN(C[C@@H](CC2CCCCC2)NC=O)CC1 [Example 9, N-{(1R)-1-Cyclohexylmethyl-2-[4-(2-methoxyphenyl)-piperazin-1-yl]-ethyl}-formamide]
pIC50 (human 5-HT1A receptor [2]): 8.83
pIC50 (human 5-HT1A receptor [4]): 7.76

pindobind
antineoplastic activity in vitro [7]: antineoplastic activity
growth of PC3 cell line in vivo (PC3 cell line): inhibited the growth
